Test results as given in patent publication US7067251B2 (priority 2000, dated 2006).

Columns and labels:
[1] = system: Mouse splenic T cells activated by plate bound anti-CD3 antibody; conditions: cited from earlier work
[2] = system: naïve T cells; assay type: cell-based, Human
[3] = system: vaccinia WR; assay type: cell-based, vaccinia virus
[4] = system: v7.5/tk; assay type: cell-based, vaccinia virus
[5] = system: vEL/tk; assay type: cell-based, vaccinia virus
[6] = system: Hutk^− cell line

| Structure (SMILES) | T cell death [1] [%] | Killing of the total number of T cells [2] [%] | Concentration sufficient to interfere with the ability to plaque [3] [mM] | Concentration sufficient to inhibit plaque formation [4] [mM] | Concentration sufficient to inhibit plaque formation [5] [mM] | Plaque formation [5] | Viability of the cells [6] |
| --- | --- | --- | --- | --- | --- | --- | --- |
| Cn1cc(C2=C(c3cn(CCCN)c4ccccc34)C(=O)NC2=O)c2ccccc21 [Bis VIII, Bisindolylmaleimide VIII] | ~100 | 95 | – | – | – | – | – |
| O=c1[nH]c(=O)n([C@H]2C[C@H](O)[C@@H](CO)O2)cc1Br [bromodeoxyuridine] | – | – | 25 | 125 | 125 | an equal number of plaques, albeit much smaller in size | does not interfere with the viability of the cells |
